Values belong to the compound of their own block, whether it stands above or below them.
Experiments:
Hygroscopicity = assay type: physicochemical
[1] = cited from earlier work
[2] = Differential scanning calorimetry (thermal stability); assay type: physicochemical; details: DSC from −20° C. up to 180° C., heating rate 5K/min
Method: FIG. 3: DSC pattern of ABSD.(L-lysine)2. Said experiment was performed from −20° C. up to 180° C., heating rate=5K/min.
The phase isolated, so called “ABSD L-lysinate”, was analyzed by DSC (FIG. 3). […] Said results further confirm that the crystalline form is anhydrous.

[3] = Solubility in water and other solvents; assay type: physicochemical
[4] = Karl Fischer titration (water content); assay type: physicochemical
From the text: A Karl Fischer titration is a classical titration method to determine the trace amounts of water in a sample. A Karl Fischer titration has confirmed the DSC analysis, by determining a water content of 0.06% inside the sample (i.e. very small amount of adsorbed water).

[5] = TGA-DSC analysis coupled to mass spectrometry (thermal behavior, loss of water); assay type: physicochemical; details: TGA-DSC from 30° C., heating rate 5K/Min
Method: A TGA-DSC analysis (coupled to mass spectrometry) was performed on this salt in order to observe its thermal behavior, and to determine its water content.
A TGA-DSC analysis (coupled to mass spectroscopy) was performed on this phase (FIG. 8).
A TGA-DSC analysis coupled to a Mass Spectroscopy (MS) was performed on this phase (FIG. 10).

Structure (SMILES): NCCCCC(N)C(=O)O (racemic) [DL-lysine, reference compound]
hygroscopicity (Hygroscopicity): high hygroscopicity up to deliquescence

Structure (SMILES): N[C@H](CCS(=O)(=O)O)CSSC[C@H](N)CCS(=O)(=O)O [ABSD zwitterion, (3S,3S′) 4,4′-disulfanediylbis(3-aminobutane 1-sulfonic acid)]
time for the mixture of hydrated forms to evolve toward the trihydrate phase ([1]; stored at circa 20° C. and RH>50%, WO 2012/045849): less than two days

thermal stability: no thermal phenomenon up to [2]: up to 180 °C
aqueous solubility compared to the ABSD trihydrate [3]: higher
aqueous solubility compared to the ABSD zwitterionic form ([3]; room temperature): higher
water content [4]: 0.06%
hygroscopy compared to the ABSD zwitterionic form (Hygroscopicity): lower
Structure (SMILES): NCCCC[C@H](N)C(=O)O.NCCCC[C@H](N)C(=O)O.N[C@@H](CCS(=O)(=O)O)CSSC[C@@H](N)CCS(=O)(=O)O [ABSD L-lysinate]

temperature of loss of water [5]: circa 35 °C
Structure (SMILES): N[C@@H](CCS(=O)(=O)[O-])CSSC[C@@H](N)CCS(=O)(=O)O.[Na+] [sodium hydrogen salt of ABSD]

Structure (SMILES): N[C@H](CCS(=O)(=O)O)CSSC[C@H](N)CCS(=O)(=O)O [trihydrate phase]
temperature at which dehydration toward the dihydrate form starts ([1]; as described in WO 2012/045849): below 30 °C

Reference: patent US9487477B2, “Crystalline phase of (3S,3S′) 4,4′-disulfanediylbis(3-aminobutane 1-sulfonic acid) with L-lysine” (Quantum Genomics, priority 2012, dated 2016)
